Common to all, as to assay type: cell-based
One test deals with β-Catenin. Kind of test: Western Blot of β-Catenin expression in A-431 cells. The settings on record: Western Blot (FIG. 6). An excerpt:
(§1) The Wnt signaling pathway mainly refers to a classic Wnt signaling pathway mediated by β-Catenin. In the absence of the Wnt signaling, GSK3β can add a phosphate group to the serine/threonine residue at the N-terminus of β-Catenin. The phosphorylated β-Catenin is covalently modified by β-TRCP ubiquitination and then degraded by a proteasome. […] Therefore, by measuring the phosphorylation statuses of GSK3β, β-Catenin and PP2A, we can directly understand whether the Wnt signaling is activated. C-myc and Cyclin D1 as protooncogenes can promote division and translation of the cells of cutaneous squamous cell carcinoma, and ultimately promote cell proliferation. By observing C-myc and Cyclin D1, we can clearly understand the inhibition effect of the photosensitizer of the present invention on proliferation of the A-431 cells. […]
(§2) A-431 cells at the logarithmic growth phase were digested with trypsin, and inoculated into a six-well culture plate, and cultured in a 5% CO2 incubator at 37° C. […] Respectively after 0.5 h and 16 h, the cells were collected to extract total protein, and the p-GSK3β, p-PP2A, p-β-catenin, C-myc, Cyclin D1 and β-Catenin in the cells were detected by the Western Blot method.
On the technique in general: A western blot detects proteins with antibodies after separation by electrophoresis.

The test system of a further test is C-myc. Kind of test: Western Blot of C-myc expression in A-431 cells. The settings on record: Western Blot (FIG. 6).
Excerpt: as §1, §2

The next test relates to p-GSK3β. The experiment in a line: Western Blot of GSK3β phosphorylation in A-431 cells. The settings on record: 200 to 800 nM, 20 J/cm^2 red light 15 min, Western Blot (FIG. 5).
Excerpt: as §1, §2

In another test the test system is Cyclin D1. Kind of test: Western Blot of Cyclin D1 expression in A-431 cells. The settings on record: Western Blot (FIG. 6).
Excerpt: as §1, §2

In another test the test system is p-PP2A. The experiment in a line: Western Blot of PP2A phosphorylation in A-431 cells. Conditions: 200 to 800 nM, 20 J/cm^2 red light 15 min, Western Blot (FIG. 5).
Excerpt: as §1, §2

For a further test, the system named is A-431 cells. Kind of test: MTT method, proliferation of A-431 cells after photosensitizer and red light irradiation. The procedure:
The MTT method is a method for detecting cell survival and growth. The detection principle of it is that a succinate dehydrogenase in mitochondria of living cells can reduce exogenous MTTs to water-insoluble blue-violet crystalline formazan and deposit the formazan in the cells, while dead cells have no such function. Dimethyl sulfoxide (DMSO) can dissolve the formazan in the cells, and the light absorbance value of it is measured at 490 nm wavelength with an enzyme-linked immunometric meter, which can indirectly reflect the number of living cells.
The cell line A-431 of cutaneous squamous cell carcinoma was cultured in a DMEM medium that contained 10% calf serum, added with […] of penicillin and 100 mg/L of streptomycin, and placed in a constant-temperature incubator at 37° C. and containing 5% CO2 for conventional culture. After the cells grew to confluence on the bottom of the flask, the medium was discarded, the cells were rinsed twice with a PBS solution, and then digested with 0.25% trypsin and 0.02% EDTA for 5 minutes, and then subcultured into flasks once every 2 to 3 days. The cells at the logarithmic growth phase were taken for experiment.
A-431 cells at the logarithmic growth phase were digested with trypsin, and inoculated into a six-well culture plate, and cultured in a 5% CO2 incubator at 37° C. When grew to the confluence of 80%-90%, the cells were respectively added with distilled water and 100 nM, 200 nM, 400 nM, 600 nM and 800 nM of the diglycosylated benzophenoxazine photosensitizer referred in the present invention. After incubation for 1 h, the cells were irradiated with 20 J/cm^2 of red light for 15 min. 16 h later, the survival and growth status of the cells were detected by the MTT method.
(In general: Tetrazolium assays rely on reduction of a dye to a coloured formazan, in cell work by metabolically active cells.)

For the next test, the system named is p-β-catenin. The experiment in a line: Western Blot of β-catenin phosphorylation in A-431 cells. Conditions: 100 nM and 400 to 800 nM, 20 J/cm^2 red light 15 min, Western Blot (FIG. 5).
Excerpt: as §1, §2

Consider `CCN(CC)CCC(C)(C[Se]N(CC)c1ccc2nc3c4ccccc4/c(=N\[Se]CC(C)(CN(CC)CC)ONC4C(O)C(O)C(CO)O[C@@H]4O)cc-3[se]c2c1)ONC1C(O)C(O)C(CO)O[C@@H]1O` (stereo partly drawn), for which the “expression quantity of β-Catenin” value in the test with β-Catenin (100 to 400 nM) is recorded as “increased slightly”; in the test on β-Catenin (600 and 800 nM), “significantly decreased”. The “expression quantity of C-myc” value with C-myc (100 to 400 nM) is reported as “increased slightly”; in the test with C-myc (600 and 800 nM), “significantly decreased”. Further, in the test on p-GSK3β, the “phosphorylation of GSK3β” value was “significantly inhibit”. In addition, the “expression quantity of Cyclin D1” value was “increased slightly” in the test on Cyclin D1 (100 to 400 nM); “significantly decreased” in the test with Cyclin D1 (600 and 800 nM). The “phosphorylation of PP2A” value in the test with p-PP2A is “significantly inhibit”. Further, the “proliferation of A-431 cells” value in the test on A-431 cells (600 nM and 800 nM, concluded from Western Blot results (FIG. 6)) is on record as “significantly inhibit”. The “proliferation of the A-431 cells” value in the test on A-431 cells (100-800 nM, inhibition increases with dose, 20 J/cm^2 red light 15 min, MTT 16 h later) was “significantly inhibit”. Further, the inhibition at 0.8 µM with A-431 cells (Homo sapiens, light or radiation study, 800 nM, A-431 cells, incubation 1 h, 20 J/cm^2 red light 15 min, MTT 16 h later, read-out: proliferation inhibition effect) was 80%. The “phosphorylation of β-catenin” value in the test on p-β-catenin was “significantly promote”.

For the origin of these results see patent US11357852B2, “Diglycosylated benzophenoxazine photosensitizer and preparation method and use thereof” (The Third Xiangya Hospital of Central South University, priority 2017, dated 2022).
